The values below come from article PMC10818416, “Design, Synthesis, and Evaluation of New Hybrid Derivatives of 5,6-Dihydro-4H-pyrrolo[3,2,1-ij]quinolin-2(1H)-one as Potential Dual Inhibitors of Blood Coagulation Factors Xa and XIa” (Molecules, 2024).

Read-outs that look alike come from different tables or passages of the source.

What all share (assay): chromogenic substrate hydrolysis, […] nm
Format in all cases: biochemical

Test [1] deals with T1, factor XIa (FXIa) (Homo sapiens, UniProt P03951).
T1 construct: gene F11
T1 sequence (P03951 19-387): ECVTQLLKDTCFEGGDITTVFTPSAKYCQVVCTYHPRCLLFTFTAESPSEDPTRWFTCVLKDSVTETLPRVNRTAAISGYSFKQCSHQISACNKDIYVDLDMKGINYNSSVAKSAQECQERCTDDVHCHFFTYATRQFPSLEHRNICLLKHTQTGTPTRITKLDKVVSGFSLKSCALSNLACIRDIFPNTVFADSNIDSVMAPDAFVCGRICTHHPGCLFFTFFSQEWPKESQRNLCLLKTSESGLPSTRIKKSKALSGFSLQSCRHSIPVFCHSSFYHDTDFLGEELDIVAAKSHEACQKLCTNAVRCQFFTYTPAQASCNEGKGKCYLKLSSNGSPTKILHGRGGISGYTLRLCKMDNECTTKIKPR
T1 sequence (P03951 388-625): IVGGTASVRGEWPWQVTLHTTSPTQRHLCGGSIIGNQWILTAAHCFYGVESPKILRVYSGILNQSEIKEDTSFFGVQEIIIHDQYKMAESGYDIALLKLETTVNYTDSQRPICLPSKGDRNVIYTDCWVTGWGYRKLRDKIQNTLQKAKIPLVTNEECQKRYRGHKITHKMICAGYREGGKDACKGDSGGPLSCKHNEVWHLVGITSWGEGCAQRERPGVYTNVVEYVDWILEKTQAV
The following applies: […] enzyme, […] S2366, pH […], up to […] DMSO.

Test [2] addresses T2, factor Xa (FXa) (Homo sapiens, UniProt P00742).
T2 construct: gene F10

Test [3] addresses T1, factor XIa (FXIa).
In test [4] the target is T2, factor Xa (FXa). As to conditions: […] enzyme, […] S2765, pH […], up to […] DMSO.
In the next test the target is T3, thrombin (Homo sapiens, UniProt P00734).
T3 construct: gene F2
The following applies: […] enzyme, […] Tos-Gly-Pro-Arg-pNA, pH […], up to […] DMSO.

T2 sequence (P00742 41-179): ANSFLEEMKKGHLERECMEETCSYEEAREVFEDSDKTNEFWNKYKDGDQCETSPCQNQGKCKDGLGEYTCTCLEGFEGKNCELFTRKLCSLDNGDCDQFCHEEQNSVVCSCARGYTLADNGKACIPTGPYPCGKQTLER
T2 sequence (P00742 235-488): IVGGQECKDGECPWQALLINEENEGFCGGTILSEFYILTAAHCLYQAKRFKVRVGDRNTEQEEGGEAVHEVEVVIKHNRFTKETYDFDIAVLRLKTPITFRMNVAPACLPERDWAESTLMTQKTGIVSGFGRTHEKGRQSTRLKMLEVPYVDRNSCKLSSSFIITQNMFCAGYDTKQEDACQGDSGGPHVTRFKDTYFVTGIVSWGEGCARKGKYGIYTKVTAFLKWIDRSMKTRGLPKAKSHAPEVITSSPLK

Regarding `COC(=O)C=C1SC(NN=C2C(=O)N3c4c2cc(C)cc4C(C)(c2ccc(Cl)cc2)CC3(C)C)=NC1=O` (mixture of isomers) [3j, Methyl 2-(2-(2-(6-(4-chlorophenyl)-4,4,6,8-tetramethyl-2-oxo-5,6-dihydro-4H-pyrrolo[3,2,1-ij]quinolin-1(2H)-ylidene)hydrazineyl)-4-oxothiazol-5(4H)-ylidene)acetate], the “Percent Inhibition at 30 μM / XIa” value at factor XIa (FXIa) [1] was found to be 83%.
One may read the IC50 as the concentration that gives 50% inhibition. A lower IC50 goes with greater potency. `COC(=O)/C=C1\SC(N/N=C2\C(=O)N3c4c2cc(Br)cc4C(C)(c2ccccc2)CC3(C)C)=NC1=O` (stereo not shown) [3p, Methyl (Z)-2-(2-(2-((Z)-8-bromo-4,4,6-trimethyl-2-oxo-6-phenyl-5,6-dihydro-4H-pyrrolo[3,2,1-ij]quinolin-1(2H)-ylidene)hydrazineyl)-4-oxothiazol-5(4H)-ylidene)acetate]: the figures for the IC50 against factor Xa (FXa) [2] and on factor XIa (FXIa) [3] were 1.83 ± 0.05 µM and 3.87 ± 0.33 µM, respectively.
Turning to `COC(=O)/C=C1\SC(N/N=C2\C(=O)N3c4c2cc(Cl)cc4C(C)(c2ccccc2)CC3(C)C)=NC1=O` (stereo not shown) [3o, Methyl (Z)-2-(2-(2-((Z)-8-chloro-4,4,6-trimethyl-2-oxo-6-phenyl-5,6-dihydro-4H-pyrrolo[3,2,1-ij]quinolin-1(2H)-ylidene)hydrazineyl)-4-oxothiazol-5(4H)-ylidene)acetate], the IC50 came out at 1.34 ± 0.16 µM against factor Xa (FXa) [2] and 7.21 ± 0.22 µM against factor XIa (FXIa) [3].
As to `COC(=O)/C=C1\SC(N/N=C2\C(=O)N3c4c2cc(Br)cc4C(C)CC3(C)C)=NC1=O` (stereo not shown) [3d, Methyl (Z)-2-(2-(2-((Z)-8-bromo-4,4,6-trimethyl-2-oxo-5,6-dihydro-4H-pyrrolo[3,2,1-ij]quinolin-1(2H)-ylidene)hydrazineyl)-4-oxothiazol-5(4H)-ylidene)acetate], the “Percent Inhibition at 30 μM / XIa” value at factor XIa (FXIa) [1] is 96%.
Consider `COC(=O)/C=C1\SC(N/N=C2\C(=O)N3c4c(cc(C)c(C)c42)C(C)CC3(C)C)=NC1=O` (stereo not shown) [3f, Methyl (Z)-2-(4-oxo-2-(2-((Z)-4,4,6,8,9-pentamethyl-2-oxo-5,6-dihydro-4H-pyrrolo[3,2,1-ij]quinolin-1(2H)-ylidene)hydrazineyl)thiazol-5(4H)-ylidene)acetate], for which the IC50 worked out at 4.02 ± 0.6 µM against factor Xa (FXa) [2] and 7.97 ± 0.63 µM at factor XIa (FXIa) [3].
With `COC(=O)/C=C1\SC(N/N=C2\C(=O)N3c4c2cc(OC)cc4C(C)CC3(C)C)=NC1=O` (stereo not shown) [3b, Methyl (Z)-2-(2-(2-((Z)-8-methoxy-4,4,6-trimethyl-2-oxo-5,6-dihydro-4H-pyrrolo[3,2,1-ij]quinolin-1(2H)-ylidene)hydrazineyl)-4-oxothiazol-5(4H)-ylidene)acetate], the IC50 against factor Xa (FXa) [2] was determined as 5.76 ± 1.08 µM; on factor XIa (FXIa) [3], 8.1 ± 0.2 µM.
`COC(=O)/C=C1\SC(N/N=C2\C(=O)N3c4c2cccc4C(C)(c2ccc(Cl)cc2)CC3(C)C)=NC1=O` (stereo not shown) [3i, Methyl (Z)-2-(2-(2-((Z)-6-(4-chlorophenyl)-4,4,6-trimethyl-2-oxo-5,6-dihydro-4H-pyrrolo[3,2,1-ij]quinolin-1(2H)-ylidene)hydrazineyl)-4-oxothiazol-5(4H)-ylidene)acetate]: the “Percent Inhibition at 30 μM / Xa” value on factor Xa (FXa) [4] worked out at 87%.
For `COC(=O)/C=C1\SC(N/N=C2\C(=O)N3c4c2cccc4C(C)(c2ccccc2)CC3(C)C)=NC1=O` (stereo not shown) [3n, Methyl (Z)-2-(4-oxo-2-(2-((Z)-4,4,6-trimethyl-2-oxo-6-phenyl-5,6-dihydro-4H-pyrrolo[3,2,1-ij]quinolin-1(2H)-ylidene)hydrazineyl)thiazol-5(4H)-ylidene)acetate], the concentration for half-maximal inhibition (IC50) against factor Xa (FXa) [2] is 1.86 ± 0.07 µM; on factor XIa (FXIa) [3], 11.5 ± 0.98 µM.
For `COC(=O)/C=C1\SC(N/N=C2\C(=O)N3c4c2cc(Br)cc4C(C)(c2ccc(Cl)cc2)CC3(C)C)=NC1=O` (stereo not shown) [3l, Methyl (Z)-2-(2-(2-((Z)-8-bromo-6-(4-chlorophenyl)-4,4,6-trimethyl-2-oxo-5,6-dihydro-4H-pyrrolo[3,2,1-ij]quinolin-1(2H)-ylidene)hydrazineyl)-4-oxothiazol-5(4H)-ylidene)acetate], in that order: 1.74 ± 0.21 µM and 3.61 ± 1.7 µM.
As to `COC(=O)/C=C1\SC(N/N=C2\C(=O)N3c4c2cc(Cl)cc4C(C)CC3(C)C)=NC1=O` (stereo not shown) [3c, Methyl (Z)-2-(2-(2-((Z)-8-chloro-4,4,6-trimethyl-2-oxo-5,6-dihydro-4H-pyrrolo[3,2,1-ij]quinolin-1(2H)-ylidene)hydrazineyl)-4-oxothiazol-5(4H)-ylidene)acetate], the IC50 against factor Xa (FXa) [2] is 2.84 ± 0.04 µM; against factor XIa (FXIa) [3], 12.2 ± 0.2 µM.
For the molecule `COC(=O)C=C1SC(NN=C2C(=O)N3c4c2cc(I)cc4C(C)CC3(C)C)=NC1=O` (mixture of isomers) [3e, Methyl 2-(2-(2-(8-iodo-4,4,6-trimethyl-2-oxo-5,6-dihydro-4H-pyrrolo[3,2,1-ij]quinolin-1(2H)-ylidene)hydrazineyl)-4-oxothiazol-5(4H)-ylidene)acetate], the IC50 at factor Xa (FXa) [2] ([…] enzyme, […] S2765, pH […], up to […] DMSO) amounted to 4.23 ± 0.31 µM; against factor XIa (FXIa) [3] ([…] enzyme, […] S2366, pH […], up to […] DMSO), 8.03 ± 0.68 µM. The “Percent Inhibition of Thrombin at 30 μM” value at thrombin was determined as 96%.
Take `COC(=O)/C=C1\SC(N/N=C2\C(=O)N3c4c2cc(Cl)cc4C(C)(c2ccc(Cl)cc2)CC3(C)C)=NC1=O` (stereo not shown) [3k, Methyl (Z)-2-(2-(2-((Z)-8-chloro-6-(4-chlorophenyl)-4,4,6-trimethyl-2-oxo-5,6-dihydro-4H-pyrrolo[3,2,1-ij]quinolin-1(2H)-ylidene)hydrazineyl)-4-oxothiazol-5(4H)-ylidene)acetate]: the IC50 at factor Xa (FXa) [2] was 1.17 ± 0.26 µM; at factor XIa (FXIa) [3], 4.59 ± 0.54 µM.
